Results reported in ChEMBL document CHEMBL3352346, “Optimization of sphingosine-1-phosphate-1 receptor agonists: effects of acidic, basic, and zwitterionic chemotypes on pharmacokinetic and pharmacodynamic profiles” (J Med Chem, 2014).
In brackets after ≈: the same amount, converted by molar mass. One block for each compound: values may come before it. Activity calls are given as the source filed them. The calls are words filed in the database; no cut-off is given here.

Experiments:
[1] = target: Sphingosine 1-phosphate receptor 1 (Homo sapiens, UniProt P21453); assay: Agonist activity at human S1P1R expressed in RH7777 membranes assessed as [35S]GTPgammaS binding after 30 mins; format: functional, cell membranes
[2] = target: Sphingosine 1-phosphate receptor 3 (Homo sapiens, UniProt Q99500); assay: Agonist activity at human S1P3R expressed in RBL membranes assessed as [35S]GTPgammaS binding after 30 mins; format: functional, cell membranes
[3] = Solubility in fed-state simulated intestinal fluid at pH 5 after 24 hrs; format: ADME
[4] = Solubility in fed-state simulated intestinal fluid at pH 6.5 after 24 hrs; format: ADME
[5] = target: T1, Cytochrome P450 1A2 (Homo sapiens, UniProt P05177); assay: Inhibition of CYP1A2 (unknown origin); format: ADME
T1 sequence (P05177 whole entry): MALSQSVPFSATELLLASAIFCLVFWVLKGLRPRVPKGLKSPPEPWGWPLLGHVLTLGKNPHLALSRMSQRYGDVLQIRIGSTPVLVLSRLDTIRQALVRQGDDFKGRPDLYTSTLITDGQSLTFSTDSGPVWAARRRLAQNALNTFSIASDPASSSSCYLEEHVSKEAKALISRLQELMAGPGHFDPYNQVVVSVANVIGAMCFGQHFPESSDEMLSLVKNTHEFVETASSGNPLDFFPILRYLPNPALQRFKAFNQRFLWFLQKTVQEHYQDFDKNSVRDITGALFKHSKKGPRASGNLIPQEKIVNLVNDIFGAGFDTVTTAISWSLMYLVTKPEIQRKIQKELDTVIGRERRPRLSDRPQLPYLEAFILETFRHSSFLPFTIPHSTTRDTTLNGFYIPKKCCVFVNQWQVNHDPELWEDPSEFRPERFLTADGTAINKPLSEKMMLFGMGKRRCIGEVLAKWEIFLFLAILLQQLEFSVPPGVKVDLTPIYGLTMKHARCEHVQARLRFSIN

[6] = target: Cytochrome P450 2C9 (Homo sapiens, UniProt P11712); assay: Inhibition of CYP2C9 (unknown origin); format: ADME
[7] = target: Cytochrome P450 2C19 (Homo sapiens, UniProt P33261); assay: Inhibition of CYP2C19 (unknown origin); format: ADME
[8] = target: Cytochrome P450 2D6 (Homo sapiens, UniProt P10635); assay: Inhibition of CYP2D6 (unknown origin); format: ADME
[9] = Inhibition of CYP3A4VG (unknown origin); format: ADME, Homo sapiens
[10] = Inhibition of CYP3A4VR (unknown origin); format: ADME, Homo sapiens
[11] = Permeability in MDCK cells; format: ADME, cell-based, Canis lupus familiaris; conditions: dog, read-out: permeability
[12] = tested on: Hepatocyte; assay: Intrinsic clearance in rat hepatocyte; format: ADME, cell-based; conditions: hepatocytes
[13] = Intrinsic clearance in dog hepatocyte; format: ADME, cell-based, Canis lupus familiaris; conditions: hepatocytes
[14] = tested on: Rattus norvegicus; assay: Reduction in lymphocyte level in po dosed male Lewis rat; format: functional, organism-based; conditions: Rattus norvegicus, Lewis
[15] = Clearance in CD rat at 1 mg/kg, iv or 3 mg/kg, po using DMSO/10%(w/v) Kleptose, 0.9% saline(aq) (2%/98%); format: ADME, organism-based; conditions: in vivo
[16] = Volume of distribution at steady state in CD rat at 1 mg/kg, iv or 3 mg/kg, po using DMSO/10%(w/v) Kleptose, 0.9% saline(aq) (2%/98%); format: ADME, organism-based; conditions: in vivo, read-out: Vdss
[17] = Half life in CD rat at 1 mg/kg, iv or 3 mg/kg, po using DMSO/10%(w/v) Kleptose, 0.9% saline(aq) (2%/98%); format: ADME, organism-based; conditions: in vivo
[18] = Oral bioavailability in CD rat at 3 mg/kg using Methylcellulose(aq), 1% (w/v) suspension; format: ADME, organism-based; conditions: CD, in vivo
[19] = Clearance in Beagle dog at 1 mg/kg, iv or 2 mg/kg, po using DMSO/10%(w/v) Kleptose, 0.9% saline(aq) (2%/98%); format: ADME, organism-based, Canis lupus familiaris; conditions: in vivo
[20] = Volume of distribution at steady state in Beagle dog at 1 mg/kg, iv or 2 mg/kg, po using DMSO/10%(w/v) Kleptose, 0.9% saline(aq) (2%/98%); format: ADME, organism-based, Canis lupus familiaris; conditions: beagle, in vivo, read-out: Vdss
[21] = Half life in Beagle dog at 1 mg/kg, iv or 2 mg/kg, po using DMSO/10%(w/v) Kleptose, 0.9% saline(aq) (2%/98%); format: ADME, organism-based, Canis lupus familiaris; conditions: beagle, in vivo
[22] = Oral bioavailability in Beagle dog at 2 mg/kg using Methylcellulose(aq), 1% (w/v) suspension; format: ADME, organism-based, Canis lupus familiaris; conditions: beagle, in vivo
[23] = Solubility in simulated gastric fluid; format: ADME
[24] = Dissociation constant, pKa of the compound; format: physicochemical
[25] = tested on: Rattus norvegicus; assay: Reduction of lymphocyte count in rat at 0.3 to 3 mg/kg, po measured relative to control; format: functional, organism-based
[26] = Fraction unbound in rat blood; format: ADME, tissue-based
[27] = Fraction unbound in dog blood; format: ADME, tissue-based, Canis lupus familiaris
[28] = Fraction unbound in human blood; format: ADME, tissue-based
[29] = Clearance in cynomolgus monkey at 1 mg/kg, iv or 3 mg/kg, po using DMSO/10%(w/v) Kleptose, 0.9% saline(aq) (2%/98%); format: ADME, organism-based, Macaca fascicularis; conditions: in vivo
[30] = Volume of distribution at steady state in cynomolgus monkey at 1 mg/kg, iv or 3 mg/kg, po using DMSO/10%(w/v) Kleptose, 0.9% saline(aq) (2%/98%); format: ADME, organism-based, Macaca fascicularis; conditions: in vivo, read-out: Vdss
[31] = Half life in cynomolgus monkey at 1 mg/kg, iv or 3 mg/kg, po using DMSO/10%(w/v) Kleptose, 0.9% saline(aq) (2%/98%); format: ADME, organism-based, Macaca fascicularis; conditions: in vivo
[32] = Oral bioavailability in cynomolgus monkey at 3 mg/kg using Methylcellulose(aq), 1% (w/v) suspension; format: ADME, organism-based, Macaca fascicularis; conditions: in vivo
[33] = target: Albumin (Homo sapiens, UniProt P02768); assay: Fraction unbound as a percentage in human serum albumin; format: ADME
Chain of Albumin (P02768 whole entry): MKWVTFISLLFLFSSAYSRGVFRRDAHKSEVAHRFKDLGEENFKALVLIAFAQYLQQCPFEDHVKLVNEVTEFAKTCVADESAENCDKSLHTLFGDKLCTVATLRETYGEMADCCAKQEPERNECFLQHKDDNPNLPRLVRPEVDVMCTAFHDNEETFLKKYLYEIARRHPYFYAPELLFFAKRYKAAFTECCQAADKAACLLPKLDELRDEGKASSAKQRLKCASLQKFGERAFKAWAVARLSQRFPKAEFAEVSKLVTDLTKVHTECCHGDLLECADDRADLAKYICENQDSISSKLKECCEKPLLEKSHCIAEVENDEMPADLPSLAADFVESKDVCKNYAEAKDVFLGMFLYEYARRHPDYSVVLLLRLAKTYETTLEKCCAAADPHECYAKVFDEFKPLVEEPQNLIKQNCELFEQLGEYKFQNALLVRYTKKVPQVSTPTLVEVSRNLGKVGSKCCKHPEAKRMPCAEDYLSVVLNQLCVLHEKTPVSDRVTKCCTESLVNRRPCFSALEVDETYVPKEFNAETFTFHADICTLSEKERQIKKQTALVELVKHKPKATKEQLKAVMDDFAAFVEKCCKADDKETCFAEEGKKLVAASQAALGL

Chain of Sphingosine 1-phosphate receptor 3 (Q99500 whole entry): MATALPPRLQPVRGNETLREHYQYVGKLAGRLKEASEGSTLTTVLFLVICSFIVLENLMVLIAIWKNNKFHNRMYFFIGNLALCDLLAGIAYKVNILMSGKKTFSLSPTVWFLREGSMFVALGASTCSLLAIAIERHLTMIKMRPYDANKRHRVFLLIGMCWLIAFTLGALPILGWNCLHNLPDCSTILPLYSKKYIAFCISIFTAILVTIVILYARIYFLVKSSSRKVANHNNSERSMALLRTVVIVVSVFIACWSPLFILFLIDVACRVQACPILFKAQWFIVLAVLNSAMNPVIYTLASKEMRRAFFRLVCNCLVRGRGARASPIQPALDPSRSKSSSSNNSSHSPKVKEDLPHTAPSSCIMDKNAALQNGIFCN
Chain of Sphingosine 1-phosphate receptor 1 (P21453 whole entry): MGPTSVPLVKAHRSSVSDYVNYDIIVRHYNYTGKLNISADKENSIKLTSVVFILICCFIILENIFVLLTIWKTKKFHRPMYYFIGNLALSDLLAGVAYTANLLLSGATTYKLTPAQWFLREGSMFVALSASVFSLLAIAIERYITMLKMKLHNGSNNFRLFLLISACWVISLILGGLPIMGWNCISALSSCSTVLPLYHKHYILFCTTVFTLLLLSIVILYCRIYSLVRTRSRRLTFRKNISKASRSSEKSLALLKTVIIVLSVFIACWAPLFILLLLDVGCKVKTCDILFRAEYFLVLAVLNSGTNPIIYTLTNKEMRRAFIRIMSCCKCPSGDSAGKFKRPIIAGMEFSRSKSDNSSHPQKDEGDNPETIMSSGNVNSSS
Chain of Cytochrome P450 2C9 (P11712 whole entry): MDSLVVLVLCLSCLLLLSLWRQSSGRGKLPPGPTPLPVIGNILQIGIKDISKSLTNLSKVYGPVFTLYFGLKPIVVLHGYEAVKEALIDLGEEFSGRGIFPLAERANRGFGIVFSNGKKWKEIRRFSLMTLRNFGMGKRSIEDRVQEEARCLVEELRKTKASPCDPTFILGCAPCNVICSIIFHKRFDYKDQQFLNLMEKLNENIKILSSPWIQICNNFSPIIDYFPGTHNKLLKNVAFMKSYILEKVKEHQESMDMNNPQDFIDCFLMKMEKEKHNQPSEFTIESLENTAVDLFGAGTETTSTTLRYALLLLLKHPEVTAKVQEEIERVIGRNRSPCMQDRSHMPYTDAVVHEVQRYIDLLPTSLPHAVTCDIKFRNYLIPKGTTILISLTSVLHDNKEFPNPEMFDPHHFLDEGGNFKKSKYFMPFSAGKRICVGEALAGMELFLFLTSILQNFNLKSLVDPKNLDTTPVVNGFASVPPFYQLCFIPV
Chain of Cytochrome P450 2D6 (P10635 whole entry): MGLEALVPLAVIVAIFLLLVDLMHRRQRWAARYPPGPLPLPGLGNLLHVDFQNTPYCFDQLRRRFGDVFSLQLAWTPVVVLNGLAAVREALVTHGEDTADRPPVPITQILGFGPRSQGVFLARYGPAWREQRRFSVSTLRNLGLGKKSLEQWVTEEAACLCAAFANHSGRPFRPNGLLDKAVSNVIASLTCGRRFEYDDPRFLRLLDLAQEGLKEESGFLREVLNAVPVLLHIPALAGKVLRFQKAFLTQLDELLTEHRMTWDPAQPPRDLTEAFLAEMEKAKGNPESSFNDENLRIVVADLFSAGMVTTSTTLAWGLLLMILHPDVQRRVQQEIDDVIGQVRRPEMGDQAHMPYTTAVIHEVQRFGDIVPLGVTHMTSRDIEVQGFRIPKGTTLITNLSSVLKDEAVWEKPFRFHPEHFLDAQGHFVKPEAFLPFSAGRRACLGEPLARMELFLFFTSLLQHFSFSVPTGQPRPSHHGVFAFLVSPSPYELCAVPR
Chain of Cytochrome P450 2C19 (P33261 whole entry): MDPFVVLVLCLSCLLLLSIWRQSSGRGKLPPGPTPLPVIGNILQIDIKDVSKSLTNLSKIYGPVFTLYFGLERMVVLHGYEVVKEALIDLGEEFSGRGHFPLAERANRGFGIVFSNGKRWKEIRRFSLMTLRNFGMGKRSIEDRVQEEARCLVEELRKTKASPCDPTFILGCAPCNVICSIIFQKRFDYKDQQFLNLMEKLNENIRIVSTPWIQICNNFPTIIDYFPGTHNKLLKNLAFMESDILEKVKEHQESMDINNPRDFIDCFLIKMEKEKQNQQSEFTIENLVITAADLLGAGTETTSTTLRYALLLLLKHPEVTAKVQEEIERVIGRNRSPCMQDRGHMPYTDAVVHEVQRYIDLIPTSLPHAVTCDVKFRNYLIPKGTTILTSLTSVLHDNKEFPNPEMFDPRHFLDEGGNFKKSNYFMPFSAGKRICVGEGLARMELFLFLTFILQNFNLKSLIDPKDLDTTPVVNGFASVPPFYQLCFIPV

Compound: CC(C)Oc1ccc(-c2nc(-c3ccc4c(c3)CN(CCCC(=O)O)CCO4)no2)cc1C#N
EC50 [1]: 0.0631 µM
EC50 [2]: 25.1 µM

Compound: CC(C)Oc1ccc(-c2nc(-c3ccc4c(c3)CCN(CCCC(=O)O)CC4)no2)cc1C#N
EC50 [1]: 0.00794 µM
EC50 [2]: 7.94 µM
solubility at 24 h [3]: 100 µg/mL (≈ 217 µM)
solubility at 24 h [4]: 30 µg/mL (≈ 65.1 µM)
IC50 [5]: > 50 µM
IC50 [6]: > 50 µM
IC50 [7]: > 50 µM
IC50 [8]: > 50 µM
IC50 [9]: > 50 µM
IC50 [10]: > 50 µM
Papp [11]: 15 ×10⁻⁶ cm/s
CLH [12]: < 0.85 mL/min/g
CLH [13]: < 1.7 mL/min/g
IC50 [14]: 0.015 µM
clearance [15]: 7 mL/min/kg
Vd [16]: 1.5 L/kg
half-life [17]: 2.6 h
bioavailability [18]: 62%
clearance [19]: 3 mL/min/kg
Vd [20]: 1.6 L/kg
half-life [21]: 8 h
bioavailability [22]: 69%
solubility [23]: 20 µg/mL (≈ 43.4 µM)
pKa [24]: 9.15
inhibition [25]: Active

Compound: CC(C)Oc1ccc(-c2nc(-c3ccc4c(c3)CNCCO4)no2)cc1Cl
EC50 [1]: 0.126 µM
EC50 [2]: 15.8 µM

Compound: CC(C)Oc1ccc(-c2nc(-c3cccc4c3CNC4)no2)cc1Cl
EC50 [1]: 0.00794 µM
EC50 [2]: > 31.6 µM

Compound: CC(C)Oc1ccc(-c2nc(-c3cccc4c3CCN(CC(=O)O)CC4)no2)cc1Cl
EC50 [1]: 2.51 µM
EC50 [2]: > 31.6 µM

Compound: CC(C)Oc1ccc(-c2nc(-c3cccc4c3OCCN(CCCC(=O)O)C4)no2)cc1Cl
EC50 [1]: 0.0398 µM
EC50 [2]: > 31.6 µM
solubility at 24 h [3]: 30 µg/mL (≈ 63.6 µM)
solubility at 24 h [4]: 320 µg/mL (≈ 678 µM)
IC50 [5]: > 50 µM
IC50 [6]: 27 µM
IC50 [7]: > 50 µM
IC50 [8]: > 50 µM
IC50 [9]: 40 µM
IC50 [10]: 39 µM
Papp [11]: 15.5 ×10⁻⁶ cm/s
fraction unbound [26]: 0.012
fraction unbound [27]: 0.018
fraction unbound [28]: 0.02
CLH [12]: 1 mL/min/g
CLH [13]: 8.3 mL/min/g
IC50 [14]: 0.127 µM
clearance [15]: 7 mL/min/kg
Vd [16]: 1.2 L/kg
half-life [17]: 3 h
bioavailability [18]: 83%
clearance [19]: 26 mL/min/kg
Vd [20]: 1 L/kg
half-life [21]: 0.4 h
bioavailability [22]: 57%
clearance [29]: 30 mL/min/kg
Vd [30]: 4 L/kg
half-life [31]: 3.2 h
bioavailability [32]: 39%
solubility [23]: > 1320 µg/mL
pKa [24]: 7.39

Compound: CC(C)Oc1ccc(-c2nc(-c3cccc4c3CCNCC4)no2)cc1C#N
EC50 [1]: 0.002 µM
EC50 [2]: 7.94 µM

Compound: CC(C)Oc1ccc(-c2nc(-c3cccc4c3CCNC4)no2)cc1Cl
EC50 [1]: 0.0398 µM
EC50 [2]: 15.8 µM

Compound: CC(C)Oc1ccc(-c2nc(-c3cccc4c3CN(CCC(=O)O)C4)no2)cc1Cl
EC50 [1]: 0.316 µM
EC50 [2]: 7.94 µM

Compound: O=C(O)c1cnn(Cc2ccc(-c3noc(-c4cc(-c5ccccc5)c(C(F)(F)F)s4)n3)cc2)c1
EC50 [1]: 0.251 µM
EC50 [2]: 1.58 µM
fraction unbound [33]: 0.01

Compound: CC(C)Oc1ccc(-c2nc(-c3ccc4c(c3)OCCNC4)no2)cc1C#N
EC50 [1]: 0.0794 µM
EC50 [2]: > 31.6 µM

More lines, in order of falling EC50 [1], values ahead:

EC50 [1]: 0.126 µM
EC50 [2]: > 31.6 µM
Compound: CC(C)Oc1ccc(-c2nc(-c3ccc4c(c3)CCCNC4)no2)cc1C#N

EC50 [1]: 0.0501 µM
EC50 [2]: > 31.6 µM
Compound: CC(C)Oc1ccc(-c2nc(-c3ccc4c(c3)CN(CCC(=O)O)CCO4)no2)cc1C#N

EC50 [1]: 0.0251 µM
EC50 [2]: 6.31 µM
Compound: CC(C)Oc1ccc(-c2nc(-c3ccc4c(c3)CNCCO4)no2)cc1C#N

EC50 [1]: 0.00794 µM
EC50 [2]: 10 µM
Compound: CC(C)Oc1ccc(-c2nc(-c3ccc4c(c3)CCN(CCC(=O)O)CC4)no2)cc1Cl

EC50 [1]: 0.00501 µM
EC50 [2]: 0.794 µM
Compound: CC(C)Oc1ccc(-c2nc(-c3ccc4c(c3)CNC(C(=O)O)CO4)no2)cc1Cl (configuration not stated)

EC50 [1]: 0.00251 µM
EC50 [2]: 0.251 µM
Compound: CC(C)Oc1ccc(-c2nc(-c3ccc4c(c3)CNC(CCC(=O)O)CO4)no2)cc1Cl (configuration not stated)
